In article PMC8286840, “Identifying SARS-CoV-2 antiviral compounds by screening for small molecule inhibitors of Nsp3 papain-like protease” (Biochemical Journal, 2021):
Structures can show the parent of a compound that is named as a salt. Where two headings read alike, the source gives them in different places.

Key:
[1] = target: T1, SARS-CoV-2 PLpro (nsp3 1564–1878) (Severe acute respiratory syndrome coronavirus 2, UniProt P0DTD1); assay: biochemical; design: FRET-quenched peptide (Pro3) cleavage by PLpro, 10 min pre-incubation, slope over 20 min, normalised to no-compound control; conditions: high concentration screen, read-out: % of control remaining
[2] = target: T1, SARS-CoV-2 PLpro (nsp3 1564–1878); assay: biochemical; design: FRET-quenched peptide (Pro3) cleavage by PLpro, 10 min pre-incubation, slope over 20 min, normalised to no-compound control; conditions: low concentration screen, read-out: % of control remaining

Compound: O=C1c2c(O)cccc2C([C@@H]2O[C@H](CO)[C@@H](O)[C@H](O)[C@H]2O)c2cc(CO)cc(O)c21 (stereo partly shown) [Aloin]
- remaining activity at 3.75 µM ([1]; Well no.=8338): 97.8%
- remaining activity at 1.25 µM ([2]; Well no.=8338): 99.2%

Compound: CCCCc1c(-c2ccc(O)cc2)[nH]c2nccnc12 [Aloisine A, RP107]
- remaining activity at 3.75 µM ([1]; Well no.=2318): 95.3%
- remaining activity at 1.25 µM ([2]; Well no.=2318): 97.4%

Compound: CCCCc1c(-c2ccc(OC)cc2)[nH]c2nccnc12 [Aloisine, RP106]
- remaining activity at 3.75 µM ([1]; Well no.=2320): 94.7%
- remaining activity at 1.25 µM ([2]; Well no.=2320): 96.9%

Compound: C1=C2CCCN[C@H]2[C@@H]2C[C@H]1[C@H]1CCCCN1C2 [Aloperine]
- remaining activity at 3.75 µM ([1]; Well no.=5240): 94%
- remaining activity at 1.25 µM ([2]; Well no.=5240): 94.5%

Compound: Cc1[nH]cnc1CN1CCc2c(c3ccccc3n2C)C1=O [Alosetron (Hydrochloride)]
- remaining activity at 3.75 µM ([1]; Well no.=8289): 99.5%
- remaining activity at 1.25 µM ([2]; Well no.=8289): 105%

Compound: C[C@]12CC[C@@H]3c4ccc(O)cc4CC[C@H]3[C@@H]1CC[C@H]2O [Alpha-Estradiol]
- remaining activity at 3.75 µM ([1]; Well no.=6693): 93.1%
- remaining activity at 1.25 µM ([2]; Well no.=6693): 98.9%

Compound: CCCN(CCC)C(=O)Cc1c(-c2ccc(Cl)cc2)nc2ccc(Cl)cn12 [Alpidem]
- remaining activity at 3.75 µM ([1]; Well no.=5821): 106%
- remaining activity at 1.25 µM ([2]; Well no.=5821): 108%

Compound: C=CCc1ccccc1OCC(O)CNC(C)C (stereo not shown) [Alprenolol (hydrochloride)]
- remaining activity at 3.75 µM ([1]; Well no.=6327): 103%
- remaining activity at 1.25 µM ([2]; Well no.=6327): 102%

Compound: C=CCc1ccccc1OCC(O)CNC(C)C (stereo not shown) [Alprenolol hydrochloride]
- remaining activity at 3.75 µM ([1]; Well no.=342): 97.7%
- remaining activity at 1.25 µM ([2]; Well no.=342): 95.5%

Compound: O=C1Cc2c([nH]c3ccc([N+](=O)[O-])cc23)-c2ccccc2N1 [Alsterpaullone]
- remaining activity at 3.75 µM ([1]; Well no.=255): 106%
- remaining activity at 3.75 µM ([1]; Well no.=2314): 105%
- remaining activity at 1.25 µM ([2]; Well no.=255): 104%
- remaining activity at 1.25 µM ([2]; Well no.=2314): 101%

Compound: C=CC[C@]1(O)CC[C@H]2[C@@H]3CCC4=CC(=O)CCC4=C3C=C[C@@]21C [Altrenogest]
- remaining activity at 3.75 µM ([1]; Well no.=5020): 93.9%
- remaining activity at 1.25 µM ([2]; Well no.=5020): 94.3%

Compound: CN(C)c1nc(N(C)C)nc(N(C)C)n1 [Altretamine]
- remaining activity at 3.75 µM ([1]; Well no.=8): 98.2%
- remaining activity at 3.75 µM ([1]; Well no.=2081): 101%
- remaining activity at 1.25 µM ([2]; Well no.=8): 96%
- remaining activity at 1.25 µM ([2]; Well no.=2081): 101%

Compound: Cc1c(-c2ccnn2C)cc(C(=O)NCc2ccc(S(C)(=O)=O)cn2)c(=O)n1-c1cccc(C(F)(F)F)c1 [Alvelestat (AZD9668)]
- remaining activity at 3.75 µM ([1]; Well no.=9174): 83.8%
- remaining activity at 1.25 µM ([2]; Well no.=9174): 95.1%

Compound: CCN(CCCc1ccccc1)CCCc1ccccc1 [Alverine (citrate)]
- remaining activity at 3.75 µM ([1]; Well no.=8203): 106%
- remaining activity at 1.25 µM ([2]; Well no.=8203): 106%

Compound: CCN(CCCc1ccccc1)CCCc1ccccc1 [Alverine Citrate]
- remaining activity at 3.75 µM ([1]; Well no.=5277): 91.3%
- remaining activity at 1.25 µM ([2]; Well no.=5277): 91.4%

Compound: C[C@H]1CN(C[C@H](Cc2ccccc2)C(=O)NCC(=O)O)CC[C@@]1(C)c1cccc(O)c1 [Alvimopan (dihydrate)]
- remaining activity at 3.75 µM ([1]; Well no.=6559): 101%
- remaining activity at 1.25 µM ([2]; Well no.=6559): 100%

Compound: C[C@H]1CN(C[C@H](Cc2ccccc2)C(=O)NCC(=O)O)CC[C@@]1(C)c1cccc(O)c1 [Alvimopan]
- remaining activity at 3.75 µM ([1]; Well no.=6051): 96.9%
- remaining activity at 1.25 µM ([2]; Well no.=6051): 95.7%

Compound: CN1CC[C@H](c2c(O)cc(O)c3c(=O)cc(-c4ccccc4Cl)oc23)[C@H](O)C1 [Alvocidib]
- remaining activity at 3.75 µM ([1]; Well no.=2695): 104%
- remaining activity at 1.25 µM ([2]; Well no.=2695): 98.7%

Compound: NC12CC3CC(CC(C3)C1)C2 [Amantadine hydrochloride]
- remaining activity at 3.75 µM ([1]; Well no.=9): 103%
- remaining activity at 1.25 µM ([2]; Well no.=9): 104%

Compound: NC12CC3CC(CC(C3)C1)C2 [Amantadine.HCl]
- remaining activity at 3.75 µM ([1]; Well no.=1653): 97.4%
- remaining activity at 1.25 µM ([2]; Well no.=1653): 97.9%

Compound: O=S(=O)(O)c1ccc2c(N=Nc3ccc(S(=O)(=O)O)c4ccccc34)c(O)c(S(=O)(=O)O)cc2c1 [Amaranth]
- remaining activity at 3.75 µM ([1]; Well no.=8462): 97.5%
- remaining activity at 1.25 µM ([2]; Well no.=8462): 98.1%

Compound: COC(c1ccccc1)(c1ccccc1)[C@H](Oc1nc(C)cc(C)n1)C(=O)O [Ambrisentan]
- remaining activity at 3.75 µM ([1]; Well no.=5270): 92.5%
- remaining activity at 3.75 µM ([1]; Well no.=6365): 98.8%
- remaining activity at 1.25 µM ([2]; Well no.=5270): 94.8%
- remaining activity at 1.25 µM ([2]; Well no.=6365): 102%

Compound: Nc1c(Br)cc(Br)cc1CN[C@H]1CC[C@H](O)CC1 [Ambroxol HCl]
- remaining activity at 3.75 µM ([1]; Well no.=5311): 97.1%
- remaining activity at 1.25 µM ([2]; Well no.=5311): 99.4%
